pEC50, pIC50: −log10 of the molar value. Marks after values point to notes of the source that are not given here.
Key:
[1] = Oral exposure and tolerability in rat
KRASG12C [2] = molecular target: T1, KRASG12C (Homo sapiens, UniProt P01116, G12C); assay: In vitro KRAS G12C target occupancy in H358 cancer cells; assay type: cell-based; design: endogenous in cells; host or cells: H358 (NCI-H358) cancer cells; details: read-out: in vitro IC50 for inhibition of KRAS G12C (target occupancy)
Method: (§1) KRASG12C inhibition can be assessed by measuring free KRASG12C levels (target occupancy) and other biomarkers in the MAPK signaling pathway, such as decreased levels of phosphorylated ERK1/2 (pERK) and downregulation of DUSP6 mRNA transcript. […] In the less sensitive NCI-H2122 xenografts, orally administered JDQ443 (100 mg/kg QD) achieved approximately 80% KRASG12C inhibition and 90% decrease in DUSP6 mRNA transcript, causing stasis which is the maximum response in this model upon MAPK pathway inhibition.

[3] = Oral exposure and tolerability in mouse
H358 cancer cells = assay: Antiproliferation in H358 cancer cells; assay type: cell-based; details: Homo sapiens, NCI-H358
KYSE410 xenograft = assay: Anti-tumor activity in KYSE410 (esophageal) xenografts; assay type: in vivo, mice; details: 10, 30 and 100 mg/kg oral daily
[4] = test system: MIA PaCa-2 (KRASG12C pancreas) xenograft; assay: Anti-tumor activity in MIA PaCa-2 xenografts; assay type: in vivo, mice
KRAS G12C_Y96C (GDP) = molecular target: T2, KRAS G12C_Y96C (GDP) (Homo sapiens, UniProt P01116, G12C/Y96C); assay: Covalent rate constants by RapidFire MS; assay type: binding; details: n=2
T2 construct: the cDNA encoding KRAS, NRAS, and HRAS comprised aa 1-169; made in house; host or cells: E. coli BL21(DE3)
Method: (§2) The E. coli expression constructs used in this study were based on the pET system and generated using standard molecular cloning techniques. […] Point mutations were introduced with the QuikChange Lightning Site-Directed Mutagenesis kit (Agilent). All final expression constructs were sequence verified by Sanger sequencing.
(§3) Cell pellets were resuspended in buffer A (20 mM Tris, 500 mM NaCl, 5 mM imidazole, 2 mM TCEP, 10% glycerol, pH 8.0) supplemented with Turbonuclease (Merck) and cOmplete protease inhibitor tablets (Roche). The cells were lysed by three passages through a homogenizer (Avestin) at 800-1000 bar and the lysate clarified by centrifugation at 40000 g for 40 min. The lysate was loaded onto a HisTrap HP 5 ml column (Cytiva) mounted on an ÅKTA Pure 25 chromatography system (Cytiva). Contaminating proteins were washed away with buffer A and bound protein was eluted with a linear gradient to buffer B (buffer A supplemented with 200 mM imidazole). During dialysis O/N the N-terminal His affinity purification tags on the non-tagged and avi-tagged proteins were cleaved off by TEV or HRV3C protease, respectively. The protein solution was re-loaded onto a HisTrap column and the flow through containing the target protein collected. Guanosine 5′-diphosphate sodium salt (GDP, Sigma) or GppNHp-Tetralithium salt (Jena Bioscience) was added to a 24-32× molar excess over protein. […] After 1 hour at room temperature the buffer was exchanged on a PD-10 desalting column (Cytiva) against 40 mM Tris, 200 mM (NH4)2SO4, 0.1 mM ZnCl2, pH 8.0. […] 40 U Shrimp Alkaline Phosphatase (New England Biolabs) was added to GppNHp containing samples only. The sample was then incubated for 1 hour at 5° C. Finally, MgCl2 was added to a concentration of about 30 mM.
(§4) Reactions were stopped at different time points by addition of formic acid to 1%. […] In parallel, compound solubility was assessed by nephelometry and compound concentrations resulting in measurable turbidity were excluded from curve fitting. […]

KRAS G12C_Y96D (GDP) = molecular target: T3, KRAS G12C_Y96D (GDP) (Homo sapiens, UniProt P01116, G12C/Y96D); assay: Covalent rate constants by RapidFire MS; assay type: binding; details: n=3
T3 construct: the cDNA encoding KRAS, NRAS, and HRAS comprised aa 1-169; made in house; host or cells: E. coli BL21(DE3)
Method: as §2, §3, §4

KRAS G12C_H95Q (GDP) = molecular target: T4, KRAS G12C_H95Q (GDP) (Homo sapiens, UniProt P01116, G12C/H95Q); assay: Covalent rate constants by RapidFire MS; assay type: binding; details: n=2
T4 construct: the cDNA encoding KRAS, NRAS, and HRAS comprised aa 1-169; made in house; host or cells: E. coli BL21(DE3)
Method: as §2, §3, §4

[5] = test system: KRAS G12C-mutated cell lines; assay: pERK 6 h cellular assay; assay type: cell-based; details: Hec50, 6 h, read-out: pERK 6 h EC50 KRAS^G12C
KRASG12C [6] = molecular target: T1, KRASG12C; assay: In vivo KRASG12C target occupancy in MIA PaCa-2 xenografts; design: endogenous in cells; host or cells: MIA PaCa-2 tumour xenografts in mice
Method: as §1

DUSP6 mRNA transcript [7] = assay: In vivo DUSP6 mRNA in NCI-H2122 xenografts; details: 100 mg/kg QD oral
Method: as §1

Blood pharmacokinetics = details: in vivo
NCI-H2030 xenograft = assay: Anti-tumor activity in NCI-H2030 xenografts; assay type: in vivo, mice; details: 10, 30 and 100 mg/kg oral daily
DUSP6 mRNA transcript [8] = assay: In vivo DUSP6 mRNA in MIA PaCa-2 xenografts; details: 30 mg/kg QD oral
[9] = test system: KRAS G12C-mutated cell lines; assay: Proliferation cellular assay; assay type: cell-based
pERK = assay: In vitro pERK inhibition in H358 cancer cells; assay type: cell-based; details: Homo sapiens, NCI-H358
Method: as §1

KRAS WT = KRAS WT (Homo sapiens, UniProt P01116); assay: cRAF recruitment 6 h cellular assay; assay type: cell-based
[10] = test system: advanced solid tumors harboring the KRAS G12C mutation; details: patients; preliminary data, trial ongoing
Method: The study is conducted in adult patients with advanced solid tumors who harbor the KRAS G12C mutation. In expansion, advanced (metastatic or unresectable) non-small cell lung cancer patients who harbor the KRAS G12C mutation and who are in the second or third line treatment setting will be enrolled.
In particular, it may be administered at a total daily dose of 400 mg, administered once daily or twice daily. It may also be administered at a total daily dose of 200 mg, administered once daily or twice daily.
It may also be administered at a total daily dose of 600 mg, administered once or twice daily.
TNO155 is administered p.o. QD or BID in a 2 week on/1 week off schedule or continuously.
TNO155 may be administered at a total daily dose ranging from 10 to 80 mg, or from 10 to 60 mg. For example, the total daily dose of TNO155 may be selected from 10, 15, 20, 30, 40, 60 and 80 mg. For example, TNO may be dosed at a total daily dose of 10, 15, 20 or 30 mg.
The total daily dose of TNO155 may be administered continuously, QD (once a day) or BID (twice a day) on QD or BID on a 2 weeks on/l week off schedule. The total daily dose of TNO155 may be administered continuously, QD (once a day) or BID (twice a day) on QD or BID on continuously (i.e. without a drug holiday). […]

HRAS WT = HRAS WT (Homo sapiens, UniProt P01112); assay: cRAF recruitment 6 h cellular assay; assay type: cell-based
HRAS WT, sequence (P01112 whole entry): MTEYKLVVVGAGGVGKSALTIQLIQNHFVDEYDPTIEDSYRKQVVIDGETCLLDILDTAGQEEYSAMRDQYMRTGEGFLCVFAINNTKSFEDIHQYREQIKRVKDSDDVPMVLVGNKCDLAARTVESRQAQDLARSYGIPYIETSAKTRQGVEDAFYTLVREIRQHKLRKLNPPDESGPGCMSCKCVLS

C=CC(=O)N1CC2(CC(n3nc(-c4ccc5c(cnn5C)c4)c(-c4c(Cl)c(C)cc5[nH]ncc45)c3C)C2)C1 (single isomer, unassigned) [Compound A, 1-{6-[(4M)-4-(5-Chloro-6-methyl-1H-indazol-4-yl)-5-methyl-3-(1-methyl-1H-indazol-5-yl)-1H-pyrazol-1-yl]-2-azaspiro[3.3]heptan-2-yl}prop-2-en-1-one]
oral bioavailability [1]: orally bioavailable | tolerability [1]: well-tolerated | pIC50 (KRASG12C [2]): 7.70 | oral bioavailability [3]: orally bioavailable | tolerability [3]: well-tolerated | GI50 (H358 cancer cells): 0.03 µM | pattern of maximal response (KYSE410 xenograft): moderate tumor growth inhibition | anti-tumor activity ([4]; 3 mg/kg daily oral): tumor stasis | anti-tumor activity ([4]; 5 mg/kg twice daily, compared with 10 mg/kg daily): comparable regression | anti-tumor activity ([4]; 10 mg/kg daily oral): tumor regression | anti-tumor activity ([4]; 15 mg/kg twice daily, compared with 30 mg/kg qd): same tumor regression | tumor growth inhibition by schedule ([4]; 30 mg/kg daily compared to 30 mg/kg q3d or 90 mg/kg q3d): better tumor growth inhibition | anti-tumor activity ([4]; 30 mg/kg daily oral): tumor regression | anti-tumor activity ([4]; 100 mg/kg daily oral): tumor regression | pattern of maximal response ([4]; 10, 30 and 100 mg/kg oral daily): regression | Second order rate constant (Kinact/KI) (KRAS G12C_Y96C (GDP)): 650 M⁻¹ s⁻¹ | Second order rate constant (Kinact/KI) (KRAS G12C_Y96D (GDP)): 90 M⁻¹ s⁻¹ | Second order rate constant (Kinact/KI) (KRAS G12C_H95Q (GDP)): 9500 M⁻¹ s⁻¹ | pEC50 [5]: 7.70 | inhibition at 30 mg/kg (KRASG12C [6]; MIA PaCa-2 xenografts, 30 mg/kg QD oral): ~90% | KRASG12C TO t1/2 (KRASG12C [6]; in vivo, MiaPaCa2 model): ~66 h | decrease in DUSP6 mRNA transcript (DUSP6 mRNA transcript [7]): approximately 90% | half-life (Blood pharmacokinetics): ~2 h | pattern of maximal response (NCI-H2030 xenograft): moderate tumor growth inhibition | decrease in DUSP6 mRNA transcript (DUSP6 mRNA transcript [8]): ~75% | GI50 [9]: 0.03 µM | pIC50 (pERK): 7.70 | pEC50 (KRAS WT): < 5.00 | clinical efficacy [10]: early signs of clinical efficacy | clinical safety and tolerability [10]: acceptable safety and tolerability profile | pEC50 (HRAS WT): < 5.00

Source: patent US20240082218A1, “PHARMACEUTICAL COMBINATIONS COMPRISING A KRAS G12C INHIBITOR AND USES OF A KRAS G12C INHIBITOR FOR THE TREATMENT OF CANCERS” (priority 2020, published 2024)
